Tested on: murine bone marrow-derived macrophages
Assay: BMDM migration (Boyden chamber)
Format: cell-based, mouse
Settings: CXCL12 100 nM and C5a 50 nM; CL27c 1 and 10 µM
Protocol: For the migration assay, BMDMs (isolated as above described) were pretreated with Versene (Gibco™ #15040066) to detach them from the plate, washed, and incubated with free RPMI with different concentrations of CL27c for at least 2 h. Migration assay was subsequently performed by using a Boyden chamber toward C5a (50 nM, Sigma-Aldrich #SRP4895A) and CXCL12 (100 nM, Peprotech #250-20A) chemokines for 1 h at 37 °C, 5% CO2. Migrated BMDMs, attached to the polycarbonate of the Boyden chamber, were stained with Diff-Quik® reagent (MICROPTIC S.L. #DQ-ST) and counted at the microscope (5 fields/sample). The percentage of migrated cells was calculated by relating the number of the treated cells with the control vehicle (free RPMI).

COC(=O)c1cccc(Cn2cc(-c3cccc4c(=O)cc(N5CCOCC5)[nH]c34)nn2)c1 [CL27c]
chemotaxis of BMDM: significantly reduce CXCL12- and C5a-induced chemotaxis

Source: article PMC6290777, “Inhalation of the prodrug PI3K inhibitor CL27c improves lung function in asthma and fibrosis” (Nature Communications, 2018)
